Values quoted from earlier work as cited in PubChem BioAssay AID1259409 (Chemical Carcinogenesis Research Information System (CCRIS), 2018).
*1 amine or outer side, *2 acyl side, *3 side chain or, on linkers, in order; H or OH if unused. Where a SMILES comes first, the peptide text is derived from it. CO = O=C([*:1])[*:2]

Tested on: rodent chemically induced tumor inhibition, incidence and multiplicity
Assay: CCRIS tumor inhibitor studies
[1] = Carcinogen: URETHANE, 51-79-6, Dose [Inhibitor]: 0.05 UMOL/G BW GIVEN AT 6 HR INTERVALS DURING THE PERIOD OF 0 TO 36 HR AFTER CARCINOGEN TREATMENT FOLLOWED BY 5 MO OBSER, Route [Inhibitor]: INTRAPERITONEAL, Species: MOUSE, Strain/Sex: ICR/FEMALE, Target Tissue: Type of Lesion: LUNG: PAPILLARY ADENOMA, Dose [Carcinogen]: 0.1 MG/G BW ONCE, Promoter: NONE USED
[2] = Carcinogen: URETHANE, 51-79-6, Dose [Inhibitor]: 0.25 UMOL/G BW 1/D DURING THE PERIOD OF 5 TO 9 D AFTER CARCINOGEN TREATMENT FOLLOWED BY OBSERVATION PERIOD UNTIL END OF, Route [Inhibitor]: INTRAPERITONEAL, Species: MOUSE, Strain/Sex: ICR/FEMALE, Target Tissue: Type of Lesion: LUNG: PAPILLARY ADENOMA, Dose [Carcinogen]: 1 MG/G BW ONCE, Promoter: NONE USED

For `C=C1CC[C@H]2C(C)(C)CCC[C@]2(C)[C@H]1CO`, the “tumour outcome (control, treated, inhibition, significance)” value (Carcinogen: 7,12-DIMETHYLBENZ[A]ANTHRACENE [57-97-6], Dose [Inhibitor]: 85 NMOL/G IN 0.1 ML ACETONE 2X/WK FOR 20 WK 1 HR PRIOR TO EACH PROMOTER DOSE BEGINNING 1 WK POST LAST CARCINOGEN DOSE (S, Route [Inhibitor]: DERMAL, Species: MOUSE, Strain/Sex: ICR/FEMALE, Target Tissue: Type of Lesion: SKIN: PAPILLOMA, Dose [Carcinogen]: 390 NMOL IN 0.1 ML ACETONE ONCE (STUDY DURATION: 21 WK), Promoter: 12-O-TETRADECANOYL-13-ACETATE [16561-29-8]) is listed as 100%, 65%, 35%, not calculated.
In the case of `Cn1c(=O)[nH]c(=O)c2[nH]cnc21`, the “tumour outcome (control, treated, inhibition, significance)” value [1] is listed as 31/59 (53%), 26/44 (59%), -11%, not significant and the “tumour outcome (control, treated, inhibition, significance)” value [2] is listed as 49/53 (93%), 50/53 (94%), -1%, not significant.
For `Clc1ccc(COC(Cn2ccnc2)c2ccc(Cl)cc2Cl)c(Cl)c1` (configuration not stated), the “tumour outcome (control, treated, inhibition, significance)” value (Carcinogen: 7,12-DIMETHYLBENZ[A]ANTHRACENE, 57-97-6, Dose [Inhibitor]: 0, 1000 PPM IN DIET FOR DURATION OF STUDY BEGINNING 1 WK PRIOR TO CARCINOGEN DOSE (STUDY DURATION: 107 D), Route [Inhibitor]: ORAL, Species: RAT, Strain/Sex: SPRAGUE-DAWLEY/FEMALE, Target Tissue: Type of Lesion: MAMMARY GLAND: ADENOCARCINOMA, Dose [Carcinogen]: 12 MG ONCE, Promoter: NONE USED) is given as 96%, 84%, 13%, not significant and the “tumour outcome (control, treated, inhibition, significance)” value (Carcinogen: 7,12-DIMETHYLBENZ[A]ANTHRACENE, 57-97-6, Dose [Inhibitor]: 0, 2000 PPM IN DIET FOR DURATION OF STUDY BEGINNING 1 WK PRIOR TO CARCINOGEN DOSE (STUDY DURATION: 107 D), Route [Inhibitor]: ORAL, Species: RAT, Strain/Sex: SPRAGUE-DAWLEY/FEMALE, Target Tissue: Type of Lesion: MAMMARY GLAND: ADENOCARCINOMA, Dose [Carcinogen]: 12 MG ONCE, Promoter: NONE USED) is given as 96%, 68%, 29%, not calculated.
For `CCC(=O)Oc1ccc2c(c1)CC[C@@H]1[C@@H]2CC[C@]2(C)[C@@H](OC(=O)CC)CC[C@@H]12`, the “tumour outcome (control, treated, inhibition, significance)” value (Carcinogen: 1,2-DIMETHYLHYDRAZINE, 540-73-8, Dose [Inhibitor]: 0, 0.1 ML OF A SOLUTION IN OLIVE OIL 1/WK FOR 30 WK ADMINISTERED 1 DAY PRIOR TO EACH CARCINOGEN DOSE AND CONTINUING FOR, Route [Inhibitor]: SUBCUTANEOUS, Species: MOUSE, Strain/Sex: C3H/FEMALE, Target Tissue: Type of Lesion: CLITORAL GLAND: TUMORS, Dose [Carcinogen]: 8 MG/KG BW 1/WK FOR 20 WK, Promoter: NONE USED) is given as 23/36 (64%), 7/37 (19%), 70%, p=0.026 and the “tumour outcome (control, treated, inhibition, significance)” value (Carcinogen: 7,12-DIMETHYLBENZ[A]ANTHRACENE, 57-97-6, Dose [Inhibitor]: 0, 1 MG/100 G BW 1/WK FOR 150 D BEGINNING POST CARCINOGEN TREATMENT (STUDY DURATION: 150 D), Route [Inhibitor]: SUBCUTANEOUS, Species: RAT, Strain/Sex: WISTAR/FEMALE, Target Tissue: Type of Lesion: MAMMARY GLAND: ADENOCARCINOMA, Dose [Carcinogen]: 4 MG IN 0.1 ML OF SESAME OIL INJECTED ONCE INTO THE EXPOSED MAMMARY TISSUE OF HYPERPROLACTINEMIC RATS ON DAY 73 OF AGE, Promoter: NONE USED) is given as 8/11 (73%), 1/7 (14%), 81%, p<0.05.
In the case of `O=CC[C@@H](O)[C@H](O)[C@H](O)CO`, the outcome (Carcinogen: 1-METHYL-1-NITROSOUREA [684-93-5], Dose [Inhibitor]: 0, 0.02, 0.03% IN DIET 6 D AFTER CARCINOGEN FOR 5 WKS, Route [Inhibitor]: DIET, Species: RAT, Strain/Sex: SPRAGUE-DAWLEY/FEMALE (30,30)/(30,30)/(30,30), Target Tissue: Type of Lesion: MAMMARY GLAND: ADENOCARCINOMA, Dose [Carcinogen]: 50 MG/KG BW AT 21 D OF AGE (STUDY DURATION: 6-7 WKS)) is listed as 25/30 (83.3%); 15/30 (50%), 40%, p<0.001; 15/30 (50%), 40%, p<0.001.
For `CC(C)[C@H](NC(=O)[C@H](CCCN=C(N)N)NC(=O)N[C@@H](Cc1ccccc1)C(=O)O)C(=O)N[C@H](C=O)CCCN=C(N)N` ({Phe-CO}-Arg-Val-Arg-aldehyde), the “tumour outcome (control, treated, inhibition, significance)” value (Carcinogen: 1,2,3,4,5,6-HEXACHLOROCYCLOHEXANE, 319-84-6, Dose [Inhibitor]: 0.1% IN DIET FOR 12 WK POST CARCINOGEN TREATMENT (STUDY DURATION: 48 WK), Route [Inhibitor]: ORAL, Species: MOUSE, Strain/Sex: DDY/MALE, Target Tissue: Type of Lesion: LIVER: NODULAR HYPERPLASIA, Dose [Carcinogen]: 500 PPM IN DIET FOR 24 WK, Promoter: NONE USED) is given as 1/13 (7%), 2/15 (13%), -86%, not significant, the “tumour outcome (control, treated, inhibition, significance)” value (Carcinogen: N-BUTYL-N-(4-HYDROXY-BUTYL)NITROSAMINE, 3817-11-6, Dose [Inhibitor]: 0.1% IN DIET FOR 32 WK POST CARCINOGEN TREATMENT (STUDY DURATION: 40 WK), Route [Inhibitor]: ORAL, Species: MOUSE, Strain/Sex: ICR/MALE, Target Tissue: Type of Lesion: URINARY BLADDER: CANCER, Dose [Carcinogen]: 0.05% IN DRINKING WATER FOR FIRST 8 WK THEN FED BASAL DIET CONTAINING INHIBITOR, Promoter: NONE USED) is given as 1/13 (8%), 3/15 (20%), -150%, not significant and the “tumour outcome (control, treated, inhibition, significance)” value (Carcinogen: N-BUTYL-N-(4-HYDROXY-BUTYL)NITROSAMINE, 3817-11-6, Dose [Inhibitor]: 0.1% IN DIET FOR 32 WK POST CARCINOGEN TREATMENT (STUDY DURATION: 40 WK), Route [Inhibitor]: ORAL, Species: MOUSE, Strain/Sex: ICR/MALE, Target Tissue: Type of Lesion: URINARY BLADDER: PAPILLARY OR NODULAR HYPERPLASIA, Dose [Carcinogen]: 0.05% IN DRINKING WATER FOR FIRST 8 WK THEN FED BASAL DIET CONTAINING INHIBITOR, Promoter: NONE USED) is given as 4/13 (31%), 8/15 (53%), -71%, not significant. The “tumour outcome (control, treated, inhibition, significance)” value (Carcinogen: URETHANE, 51-79-6, Dose [Inhibitor]: 11 INJECTIONS (100 UG/G BW FOR EACH) AT 12 HR INTERVALS FROM 0-120 HR AFTER URETHANE TREATMENT (STUDY DURATION: 5 MO), Route [Inhibitor]: INTRAPERITONEAL, Species: MOUSE, Strain/Sex: ICR/JCI/FEMALE, Target Tissue: Type of Lesion: LUNG: TUMOR, Dose [Carcinogen]: 1.0 MG/G BW ONCE, Promoter: NONE USED) was 49/53 (92%), 38/46 (83%), 10%, not significant and the “tumour outcome (control, treated, inhibition, significance)” value (Carcinogen: URETHANE, 51-79-6, Dose [Inhibitor]: 11 INJECTIONS (100 UG/G BW FOR EACH) AT 12 HR INTERVALS FROM 240-360 HR AFTER URETHANE TREATMENT (STUDY DURATION: 5 MO), Route [Inhibitor]: INTRAPERITONEAL, Species: MOUSE, Strain/Sex: ICR/JCI/FEMALE, Target Tissue: Type of Lesion: LUNG: TUMOR, Dose [Carcinogen]: 1.0 MG/G BW ONCE, Promoter: NONE USED) was 49/53 (92%), 34/45 (76%), 17%, p<0.05.
For `CCCCC[C@H](O)/C=C/[C@@H]1[C@@H](C/C=C\CCCC(=O)O)[C@@H](O)C[C@H]1O`, the “tumour outcome (control, treated, inhibition, significance)” value (Carcinogen: ETHYL METHANESULFONATE, 62-50-0, Dose [Inhibitor]: 0, 1 MG/KG IN SESAME OIL 2/WK FOR 8 WK ADMINISTERED CONCOMITANTLY WITH CARCINOGEN TREATMENT (STUDY DURATION: 44 WK), Route [Inhibitor]: INTRAMUSCULAR, Species: RAT, Strain/Sex: WISTAR/FEMALE, Target Tissue: Type of Lesion: MAMMARY GLAND: CARCINOMA, Dose [Carcinogen]: 0.001 MOLAR SOLUTION IN TAP WATER FOR 12 WK, Promoter: NONE USED) is listed as 100%, 61%, 39%, p<0.01 and the “tumour outcome (control, treated, inhibition, significance)” value (Carcinogen: ETHYL METHANESULFONATE, 62-50-0, Dose [Inhibitor]: 0, 1 MG/KG IN SESAME OIL 2/WK FOR 8 WK BEGINNING POST CARCINOGEN TREATMENT (STUDY DURATION: 44 WK), Route [Inhibitor]: INTRAMUSCULAR, Species: RAT, Strain/Sex: WISTAR/FEMALE, Target Tissue: Type of Lesion: MAMMARY GLAND: CARCINOMA, Dose [Carcinogen]: 0.001 MOLAR SOLUTION IN TAP WATER FOR 12 WK, Promoter: NONE USED) is listed as 100%, 88%, 12%, not significant.
In the case of `Cn1c(=O)[nH]c2nc[nH]c2c1=O`, the “tumour outcome (control, treated, inhibition, significance)” value [1] is listed as 31/59 (53%), 18/36 (50%), 6%, not significant and the “tumour outcome (control, treated, inhibition, significance)” value [2] is listed as 49/53 (93%), 39/43 (91%), 2%, not significant.
